Source: patent US5229419A, “Chemotherapeutically active acetogenins” (Purdue Research Foundation, priority 1992, dated 1993)
In brackets after ≈: the same amount, converted by molar mass. Where two headings read alike, the source gives them in different places.

What was measured:
[1] = test system: HT-29 (human colon adenocarcinoma); assay: HT-29 cytotoxicity; format: cell-based; conditions: HT-29, read-out: HT29 ED50
Protocol: (§1) Occasional checks in the potato disc (PD) assay assured us that antitumor activity was present [Ferrigni et al., J. Nat. Prod., 45; 679-686 (1982)]. Cytotoxicity tests were performed at the Purdue Cell Culture Laboratory, Purdue Cancer Center, using standard protocols for 9KB (human nasopharyngeal carcinoma) and 9PS (a chemically-induced murine lymphocytic leukemia) [Suffness et al., Methods In Cancer Research. Vol. 16: 73 (1979), V. T. DeVita, Jr. and H. Busch eds., Academic Press, New York], 9ASK (astrocytoma reversal) [Lgarashi et al., Cell Struct. and Funct., 3: 107 (1978)], A-549 (human lung carcinoma) [Giard et al., J. Nat. Cancer Inst., 51: 1417-1423 (1973)], and HT-29 (human colon adenocarcinoma) [Fogh J. (ed.), Human Tumor Cells, In Vitro, Plenum Press, New York: 115-159 (1975)].
(§2) These two compounds are the most bioactive acetogenins reported to this date. But the safety range for treatments might be larger. In this table, two cytotoxicity tests against human tumor cell lines such as the human lung carcinoma (A-549) [Giard et al., J. Nat. Cancer Inst. 51: 1417-1423 (1973)] and the human colon adenocarcinoma (HT-29) [Fogh, J. (ed.) Human Tumor Cells, In Vitro, pp. 115-159, Plenum Press, New York (1975)] have been performed. […] The mode of action for the acetogenins is still unknown, but it is postulated to involve cell membranes.

[2] = test system: A-549 (human lung carcinoma); assay: A-549 cytotoxicity; format: cell-based; conditions: A549, read-out: A549 ED50
Protocol: as §1, §2

[3] = test system: brine shrimp (Artemia salina Leach); assay: whole plant or invertebrate; format: in vivo; conditions: 24 hrs, read-out: BST LC50
Protocol: The extracts, fractions, and isolated compounds were routinely evaluated for lethality to brine shrimp larvae (BST). The LC50 of brine shrimp (Artemia salina Leach) was determined by substantially the same method described by Meyer et al. [Planta Med., 45: 31-34 (1982)]. The test sample was dissolved in solvent and added to 2-dram vials in an amount to provide 1000, 100, 10, 1, etc. p.p.m. of material in the final brine preparation, assuming complete miscibility in the brine. The vials were dried in vacuo, and artificial sea water, prepared from a commercial salt mixture, was added. Ten brine shrimp larva (nauplii), 48-72 hrs. old, were introduced to the vial, and the volume was made up to 5 ml. with the sea water. After 24 hrs., the percent mortality was computed. Subsequently, LC50 values and 95% confidence limits were calculated by a Finney probit analysis to permit comparison of potencies of extracts and fractions.
(§3) Anticancer activity is a potential use even for the crude extract. The bioassay results for the lethality of brine shrimp (BST), the inhibition of crown gall tumors on potato discs (PD), the reversal in morphology of db-cAMP induced AC glioma cells from that of mature, differentiated astrocytes to that of immature AC glioma cells (mouse brain cells) (9ASK), the dose that inhibits cell growth to one-half that of untreated poorly differentiated human epidermic carcinoma (9KB), the dose that inhibits cell growth to one-half that of a methylcholanthrene-induced lymphoid neoplasm in a DBA/2 mouse (9PS), and the percent displacement in a protein kinase C test for initial extract fractions are shown in Table 1. Obviously, the bioactivity is concentrated in F005.

PS = conditions: cited from earlier work
[4] = test system: 9KB (human nasopharyngeal carcinoma); assay: 9KB cytotoxicity; format: cell-based
Protocol: as §1, §3

[5] = test system: 9PS (murine lymphocytic leukemia); assay: 9PS cytotoxicity; format: cell-based; conditions: Mus musculus; read-out: 9PS ED50
Protocol: as §1, §3

[6] = test system: P-388 lymphocytic leukemia; conditions: cited from earlier work
[7] = test system: P-388 (PS) lymphocytic leukemia; conditions: cited from earlier work
indicator organisms = assay: pesticidal bioassays, overall; conditions: in vivo
Protocol: Pesticidal bioassays were conducted at Eli Lilly Laboratories (Greenfield, Ind.) following standard procedures with eight indicator organisms: mosquito larvae (ML) Aedes aegypti (in the media), blowfly larvae (BFL) (1% in the diet), corn root worm (CRW) Diabrotics undecimcuntata howardii (in soil), two-spotted spider mite (2SSM) Tetranychus urticae (on foliage), southern army worm (SAW) Spodoptera eridania (on foliage), melon aphid (MA) (5000 ppm on foliage), cotton aphid (CA) Aphis gossypii, (on foliage) and Haemonchus contortus (HC) (a nematode, 0.1% in the media).
The compounds can be formulated at concentrations of about 1 to about 200 ppm in conventional liquid or solid forms for application to pest infected areas.

human tumor cell lines = assay: selectivity of cytotoxicity between human tumor cell lines A-549 and HT-29; format: cell-based; conditions: compared with bullatacin; A-549 vs HT-29
Excerpt: as §2

3PS lymphocytic leukemia = conditions: 0.0125 mg/kg; cited from earlier work
stripped cucumber beetle = conditions: cited from earlier work
[8] = test system: 9PS (murine lymphocytic leukemia); conditions: cited from earlier work
[9] = test system: 9KB (human nasopharyngeal carcinoma); conditions: cited from earlier work
mice = conditions: cited from earlier work
blow fly larvae = conditions: cited from earlier work
two spotted spider mites = conditions: cited from earlier work
melon aphid = conditions: cited from earlier work
mosquito larvae = conditions: cited from earlier work
[10] = test system: free-living nematode, Caenorabditis elegans; conditions: cited from earlier work
Mexican bean beetle = conditions: cited from earlier work

SMILES | IC50 [1] [ng/mL] | IC50 [2] [ng/mL] | LC50 [3] [µg/mL] | 9KB ED50 [4] | IC50 [5] [ng/mL] | further results
CCCCCCCCCC[C@H](O)[C@H]1CC[C@H]([C@H]2CC[C@H]([C@H](O)CCCCCCCCCC[C@@H](O)CC3C[C@H](C)OC3=O)O2)O1 (stereo partly shown) [Dihydro-bullatacin] | 0.0333 (≈ 0.0533 nM) | < 0.001 | 0.0145 (≈ 23.2 nM) | – | – | –
CCCCCCCCCCC(O)C1CCC(C2CCC(C(O)CCCCCCCCCCC(O)CC3=CC(C)OC3=O)O2)O1 (stereo not shown) [rolliniastatin] | – | – | – | – | – | life extension (PS): 28%
CCCCCCCCCC[C@H](OC(C)=O)[C@H]1CC[C@H]([C@H]2CC[C@H]([C@@H](CCCCCCCCCC[C@H](CC3=C[C@H](C)OC3=O)OC(C)=O)OC(C)=O)O2)O1 [Bullatacin triacetate] | > 100 | 2 | 5.7 | 6.85e-07 µg/mL | 3.89 | –
CCCCCCCCC[C@@H](O)[C@@H](O)[C@@H]1CC[C@@H]([C@@H]2CC[C@@H]([C@@H](O)CCCCCCCCCCCCC3=CC(C)OC3=O)O2)O1 (stereo partly shown) [rollinicin] | – | – | – | – | – | in vitro cytotoxicity against P-388 [6]: in vitro cytotoxicity
CCCCCCCCCC[C@H](OC(C)=O)[C@H]1CC[C@H]([C@H]2CC[C@H]([C@H](O)CCCCCCCCCCCCC3=C[C@H](C)OC3=O)O2)O1 [Uvaricin] | – | – | – | – | – | activity in vivo against P-388 lymphocytic leukemia in mice [7]: demonstrated activity in vivo
CCCCCCCCCC[C@H](O)[C@H]1CC[C@H]([C@H]2CC[C@H]([C@H](O)CCCCCCCCCCC3CC(CC(C)=O)C(=O)O3)O2)O1 (stereo partly shown) [Bullatacinone] | – | 1 (≈ 1.61 nM) | 0.003 (≈ 4.82 nM) | < 10^-12 mcg/ml | 4.23 (≈ 6.79 nM) | pesticidal activity (indicator organisms): lack of pesticidal activity; selectivity of cytotoxicities (human tumor cell lines): more selective cytotoxicities than bullatacin
CCCCCCC(O)CCCC(O)C1CCC(C2CCC(C(O)CCCCCCCCCCCCC3=CC(C)OC3=O)O2)O1 (stereo not shown) [isorollinicin] | – | – | – | – | – | in vitro cytotoxicity against P-388 [6]: in vitro cytotoxicity
CCCCCCCCCCC(O)C1CCC(C2CCC(C(O)CCCCCCCCCCC(O)CC3=CC(C)OC3=O)O2)O1 (stereo not shown) [Asimicin] | – | – | – | – | – | % T/C (3PS lymphocytic leukemia): 124 % T/C; pesticidal activity (stripped cucumber beetle): Promising pesticidal activity; 9PS ED50 [8]: < 10^-7 μg/ml; 9KB ED50 [9]: < 10^-5 μg/ml; toxic to mice at (mice): 6.25 mg/kg; pesticidal activity (blow fly larvae): Promising pesticidal activity; pesticidal activity (two spotted spider mites): Promising pesticidal activity; pesticidal activity (melon aphid): Promising pesticidal activity; pesticidal activity (mosquito larvae): Promising pesticidal activity; pesticidal activity [10]: Promising pesticidal activity; pesticidal activity (Mexican bean beetle): Promising pesticidal activity
CCCCCCCCCC[C@H](OC(C)=O)[C@H]1CC[C@H]([C@H]2CC[C@H]([C@@H](CCCCCCCCCC[C@@H]3C[C@@H](CC(C)=O)C(=O)O3)OC(C)=O)O2)O1 [Bullatacinone diacetate] | 100 | 28 | > 10 | 5000 µg/mL | 42.2 | –
